The text below walks through data of patent publication US20030054988A1, “Modified plasminogen related peptide fragments and their use as angiogenesis inhibitors” (priority 2000, published 2003).

The subject of assay [1] is human umbilical vein endothelial cell (HUVEC). The assay can be described thus: bFGF-induced HUVEC migration. In kind it is cell-based. The text has this:
(§1) The assay used in these experiments is described by Ji et al. in Biochem. Biophys. Res. Commun. 1998 247:414-419. […] In addition, the modified peptide fragment BMS-291242 (SEQ ID NO: 12) was an extremely potent inhibitor of bFGF-induced HUVEC migration.

The test system of a further assay is HUVEC. The assay can be described thus: HUVEC proliferation in response to mitogenic stimulation. In kind it is cell-based, human. The text has this: The anti-proliferative effects of the modified peptide fragments on endothelial cells in response to different mitogenic stimulation were also examined. The assay used in these experiments is described by Cao et al. in J. Biol. Chem. 1997 272(36):22924-22928. The modified peptide fragment BMS-291102 (SEQ ID NO: 2) was an extremely potent inhibitor of bFGF-elicited HUVEC proliferation.

The subject of assay [2] is endothelial cells in the matrigel plug. The assay can be described thus: In vivo Matrigel plug angiogenesis model. Conditions: 100 μM/plug, peptide embedded in matrigel, bFGF stimulation, nude mice. On the procedure:
Modified peptide fragments of the present invention were also evaluated in the matrigel plug model to determine their in vivo anti-angiogenic activities. To minimize the effects caused by differential pharmacokinetic properties of these compounds, the matrigel was prepared together with these peptides and the mixture was implanted into nude mice.
MATRIGEL was mixed with basic fibroblast growth factors at a final concentration of 300 μg/ml. Peptide fragments at selected doses were embedded with the MATRIGEL mixture and injected subcutaneously into mice. The animals were allowed to grow for 7 days. The plugs were then excised and the number of endothelial cells in the plug were examined histologically.

The test system of assay [3] is human umbilical vein endothelial cell (HUVEC). The assay can be described thus: VEGF-induced HUVEC migration. It counts as cell-based. The settings on record: VEGF-induced/stimulated; read-out: inhibition of VEGF-induced HUVEC migration (potency class).
Text: as §1

Setting [4] is: bFGF-induced, read-out: inhibition of bFGF-induced HUVEC migration (potency class).

Consider “AQDWAAQEPHRHSIFTPETNPRAGLEKNYA [BMS-291242]”, for which the IC50 in assay [1] (setting [4]) is less than 10 nM. In addition, the “anti-proliferative activity on endothelial cells” value in the assay with HUVEC (mitogenic stimulus not given) is “moderate anti-proliferative activity”. For the same sequence, the “reduction of number of endothelial cells in matrigel plug / inhibition of bFGF-elicited in vivo angiogenesis” value in assay [2] is “significantly inhibited”.

Regarding “NYARNPDGDVGGPWAY [BMS-291203, Ac-NYARNPDGDVGGPWAY-NH2]”, in assay [2], the “reduction of number of endothelial cells in matrigel plug / inhibition of bFGF-elicited in vivo angiogenesis” value was “effectively reduced the number of endothelial cells”. Still for that read-out and setting: to “NYARNPDGDVGGPWAYTTNPRKLYDYADVPQA [BMS-291245]” belongs “significantly inhibited”. As to “TTNPRKLYDYADVPQA [BMS-291205, Ac-TTNPRKLYDYADVPQA-NH2]”, the IC50 was 1000 nM in assay [1] (stimulus not given, presumably bFGF, read-out: IC50, marginal inhibitory activity (HUVEC migration)) and less than 100 nM in assay [3].

On to “VTGTPAQDWAAQEPHR [BMS-291102, Ac-VTGTPAQDWAAQEPHR-NH2]”, for which the IC50 with HUVEC (bFGF-elicited, read-out: inhibition of bFGF-elicited HUVEC proliferation (potency class)) was less than 10 nM. In assay [2], the “reduction of number of endothelial cells in matrigel plug / inhibition of bFGF-elicited in vivo angiogenesis” value was “effectively reduced the number of endothelial cells”. For “WAAQEPHRHSIFTPET [BMS-291209, Ac-WAAQEPHRHSIFTPET-NH2]”, the IC50 in assay [1] (setting [4]) was less than 100 nM; in assay [3], less than 10 nM.
